Numbered stars: 1 amine (or outer) side, 2 acyl side, 3 side chain; on linkers, the order of the positions; unused ones are H or OH. Square brackets hold non-standard residues; d marks the D form. Peptide text beside a SMILES is read from it. * marks the point of attachment. NMeI = CC[CH](C)[CH](NC)C(=O)O; X2 = CCC(C)C(O[*:1])C(=O)[*:2]; NMeV = CN[CH](C(=O)O)C(C)C; X1 = C#CCCCC(O)C(C)C(=O)*
Assays:
MDA-MB-231 cells = assay: MTT cytotoxicity assay in MDA-MB-231 (TNBC) cells; format: cell-based, human; conditions: for cytotoxicity / effect on viability in words: TNBC (MDA-MB-231) cells, MTT
Protocol: (§1) The human triple-negative breast cancer cell line MDA-MB-231 was obtained from ATCC and was maintained in DMEM:F-12 (1:1) (Life Technologies, Carlsbad, CA, USA), 10% Fetal Bovine Serum (Atlanta Biologicals, Atlanta, GA, USA), and 1% Penicillin/Streptomycin (Sigma, St. Louis, MO, USA). The estrogen-positive MCF-7 cell line was also obtained from ATCC and was maintained in 1640 RPMI media (Life technologies), 10% FBS, and 1% Penicillin/Streptomycin. HEK-293 cells were also obtained from ATCC and maintained in Dulbecco’s Modification of Eagle’s Medium (DMEM), 10% Fetal Bovine Serum (FBS), and 1% Penicillin/Streptomycin (Pen/Strep).
(§2) Two rounds of toxicity experimentation were completed. First, MDA-MB-231 and MCF-7 cells were plated at a density of 5 × 10^3 cells per well in a 96-well plate. Cells were allowed to attach overnight. The cells were treated with depsipeptides or vehicle for 72 h with 5% FBS stimulation. DMSO was used as a vehicle control. After treatment, 10 μ L MTT (Sigma) was added to each well (0.5 mg/mL final concentration), and the plates were incubated for 3 h (5% CO2 and 37 °C). The medium was removed and the MTT-formazan crystals were dissolved with 100 μ L DMSO per well. The absorbance was measured at 570 nm with a VICTOR^3 1420 multilabel counter (Perkin Elmer, Springfield, IL, USA). Three wells were analyzed for each condition, and wells containing medium-MTT only (no cells) and medium-MTT (DMSO + 5% FBS) were used as controls. Results were normalized to the DMSO + 5% FBS group.

MCF-7 cells = assay: MTT cytotoxicity assay in MCF-7 (estrogen positive) cells; format: cell-based, human; conditions: ER-positive MCF-7 cells, 72 h, listed as Veraguamide O
Protocol: as §1
as §2, with “The medium was removed and the MTT-formazan crystals were dissolved with 100 μ L DMSO per well.” left out, “Results were normalized to the DMSO + 5% FBS group.” left out

C#CCCCC(O)C(C)C(=O)NC(C(=O)N(C)C(C(=O)OC(C(=O)N1CCCC1C(=O)N(C)C(C(=O)O)C(C)CC)C(C)CC)C(C)C)C(C)CC (stereo not drawn) [Veraguamide O (1)] (X1-I[NMeV][X2]P[NMeI]-OH; configuration not given here)
cell death observed microscopically (MDA-MB-231 cells; MDA-MB-231 (TNBC), 10 μM, microscopy): appeared to induce cell death
viability (MDA-MB-231 cells; MDA-MB-231, MTT, 72 h, 0.14 µM, % of DMSO + 5% FBS control): 86%
selectivity for TNBC over estrogen-positive cells, in words (MDA-MB-231 cells; MDA-MB-231 compared to MCF-7, MTT): selective inhibitory effects against TNBC (MDA-MB-231) cells compared to estrogen-positive (MCF-7) breast cancer cells
cytotoxicity / effect on viability in words (MDA-MB-231 cells; 72 h): decreased viability in MDA-MB-231 cells in a concentration-dependent manner
cytotoxicity / effect on viability in words (MDA-MB-231 cells; 72 h, listed as veraguamide O): similar, albeit minor, levels of toxicity
cytotoxicity / effect on viability in words (MCF-7 cells): no cytotoxicity
